# According to US20180344671A1, “Cysteamine as Neutrophil Elastase Inhibitor” (Novabiotics Limited, priority 2017, published 2018):
# Assays:
# [1] = target: T1, human neutrophil elastase (Homo sapiens, UniProt P08246); experiment: SDS PAGE of recombinant human neutrophil elastase treated with cysteamine and derivatives; conditions: FIG. 3; 2.5 μg NE with 2.5 or 5 μg compound, 1 h at 37° C., 8-16% Tris-Glycine SDS gel
# T1 sequence (P08246 30-267): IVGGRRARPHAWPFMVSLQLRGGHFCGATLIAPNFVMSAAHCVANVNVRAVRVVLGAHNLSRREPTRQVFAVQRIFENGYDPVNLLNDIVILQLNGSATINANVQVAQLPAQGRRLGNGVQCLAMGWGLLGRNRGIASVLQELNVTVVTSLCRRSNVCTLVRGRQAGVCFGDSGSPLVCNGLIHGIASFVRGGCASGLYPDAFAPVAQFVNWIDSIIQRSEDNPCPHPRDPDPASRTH
# Experimental: FIG. 3: The banding pattern and relative staining intensity of recombinant human neutrophil elastase is altered by the addition of cysteamine bitartrate and cysteamine free base. […] This 8-16% gradient Tri-Glycine SDS gel is loaded with a molecular weight marker and: 1. Recombinant human neutrophil elastase [2.5 μg total]; 2. Recombinant human neutrophil elastase [2.5 μg total] and cysteamine bitartrate [2.5 μg total]; 3. Recombinant human neutrophil elastase [2.5 μg total] and cysteamine bitartrate [5 μg total]; 4. Recombinant human neutrophil elastase [2.5 μg total] and cysteamine free base [2.5 μg total]; 5. Recombinant human neutrophil elastase [2.5 μg total] and cysteamine free base [5 μg total]; 6. Recombinant human neutrophil elastase [2.5 μg total] and cystamine dihydrochloride [2.5 μg total]; 7. Recombinant human neutrophil elastase [2.5 μg total] and cystamine dihydrochloride [5 μg total].
# Recombinant proteins were treated with or without cysteamine and its derivatives at the concentrations stated in the figures below for 1 h at 37° C. prior to addition of 2× sample buffer and electrophoretic separation on pre-cast 8-16% tris-glycine SDS polyacrylamide gradient gel (Life Technologies) under a constant voltage of 120V in tris-glycine running buffer until the dye front reached the end of the gel. Samples were not heated prior to loading to minimize denaturation of disulphide bonds on the denaturing gel. Precision Plus (Bio-Rad) prestained protein standards were used alongside samples. After electrophoresis gels were carefully removed from the plastic cassettes and washed in sterile distilled water to remove SDS 3× for 5 min. Protein bands were visualized using coomassie-based Simply Blue™ Safe Stain (Life Technologies) staining for 1 h at room temperature. The gel was washed overnight in sterile distilled water, and for a further hour in fresh water prior to photographing.
# [2] = target: T1, human neutrophil elastase; experiment: Neutrophil Elastase Inhibitor Screening Kit (Sigma MAK213), fluorometric; format: biochemical; parameters: purchased Sigma-Aldrich MAK213; conditions: for effect on human neutrophil elastase activity measured fluorometrically: FIG. 2, result in words; for Relative inhibition of NE activity (%): 30 min, 37° C.
# Experimental: Neutrophil Elastase Inhibitor Screening Kit is available from Sigma-Aldrich, catalogue number MAK213. This kit measures neutrophil elastase activity by detecting the hydrolysis and release of a fluorescent product. It allows for the screening of unknown substances for inhibitory activity and compares with a positive inhibitor control. Cysteamine free base, cysteamine bitartrate, and cystamine dihydrochloride were prepared in the assay buffer provided at four times the final testing concentration and combined with enzyme and substrate as appropriate and as defined in the full protocol. Samples were prepared in 96 well microtiter plates with black well walls. Background fluorescence can be determined by omitting the neutrophil elastase from a sample blank control. Fluorescence was measured at 400ex/505em nm on a Biotek Synergy plate reader over 30 min at an incubation temperature of 37° C. Relative inhibition is determined by the following equations: Slope=(Fluorescence 2−Fluorescence 1)/(Time 2−Time 1)=delta fluorescence/minute % Relative Inhibition=((SlopeEC−SlopeSM)/SlopeEC))×100 Where: SlopeSM=the slope of the sample inhibitor (cysteamine and derivatives) & SlopeEC=the slope of the Enzyme control.
banding pattern and relative staining intensity of recombinant human neutrophil elastase [1],SMILES,effect on human neutrophil elastase activity measured fluorometrically [2],Relative inhibition of NE activity (%) ([2]; Cysteamine bitartrate concentration 20 μg/ml),Relative inhibition of NE activity (%) ([2]; Cysteamine bitartrate concentration 200 μg/ml),Relative inhibition of NE activity (%) ([2]; Cysteamine bitartrate concentration 2000 μg/ml)
less of an effect,"Cl.Cl.NCCSSCCN [Cystamine dihydrochloride, cystamine dihydrochloride]",minimal effect,–,–,–
altered,"NCCS [cysteamine free base, NH2—CH2—CH2—SH]",effected human neutrophil elastase activity,–,–,–

SMILES,banding pattern and relative staining intensity of recombinant human neutrophil elastase [1],effect on human neutrophil elastase activity measured fluorometrically [2],Relative inhibition of NE activity (%) ([2]; Cysteamine bitartrate concentration 20 μg/ml),Relative inhibition of NE activity (%) ([2]; Cysteamine bitartrate concentration 200 μg/ml),Relative inhibition of NE activity (%) ([2]; Cysteamine bitartrate concentration 2000 μg/ml)
"NCCS.O=C(O)C(O)C(O)C(=O)O (stereo not drawn) [Cysteamine bitartrate, cysteamine bitartrate]",altered,effected human neutrophil elastase activity,12.526,30.689,86.639
